In publication PMC6941357, “An in vitro toolbox to accelerate anti-malarial drug discovery and development” (Malaria Journal, 2020):
“And” between values parts separate entries of the source, which are not always exact repeats. Equal values may be shown once. Read-outs that look alike come from different tables or passages of the source. Marks after values point to notes of the source that are not given here.

Legend:
human plasma [1] = experiment: Plasma protein binding via ultracentrifugation (UC); type: in vitro ADME; details: ultracentrifugation, neat plasma
Method in brief: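 Unbound fraction from ultracentrifugation of spiked pooled donor plasma, supernate pH checked and sampled for Cunbound. Ctotal and degradation taken from 37 °C control tubes at start and end; all samples mixed 1:1 with blank plasma or pH 7.4 buffer before analysis on shared calibration.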

human plasma [2] = experiment: Plasma protein binding via rapid equilibrium dialysis (RED), 10% plasma; type: in vitro ADME; details: RED, 10% plasma corrected for dilution
Method: (§1) Pooled human plasma (n = 3–4 donors) was obtained by centrifugation of blood (collected by the Australian Red Cross Blood Service, Melbourne, Australia or the Volunteer Blood Donor Registry, Clinical Translation Centre, Walter & Eliza Hall Institute of Medical Research, Parkville, Australia), or sourcing pooled plasma directly from commercial sources (Innovative Research Inc, MI) and stored frozen at − 80 °C.
(§2) Plasma was diluted 1:10 with pH 7.4 phosphate buffer (prepared by mixing 0.1 M sodium dihydrogen phosphate and 0.1 M disodium hydrogen phosphate (both containing 0.04 M NaCl) to pH 7.4) and spiked with compound to achieve a total measured concentration of ~ 1000–3000 ng/mL. Diluted plasma was vortex mixed briefly and aliquots (n = 3–4) were transferred to RED (Thermo Fisher Scientific, Waltham, MA) units that were placed at 37 °C under ambient atmosphere on a plate shaker. […] At the end of the dialysis period, samples were removed from both the donor and dialysate chambers of the RED units. […] Fraction unbound values were calculated for each individual RED unit and the mean and SD calculated for n = 3–4 replicates.
(§3) Briefly, the RED device was exposed for two 30 min periods and one overnight period to fresh solutions of compound prepared in pH 7.4 buffer at approximately 10% of the total dialysis concentration. Following the preincubations, solutions were removed from the RED device and discarded. […] Samples were removed and analysed as described above.
(§4) For binding assessments using 10% plasma, the unbound fraction (fu) in neat plasma was calculated using the average values for Ctotal and Cunbound and Eq.

[3] = Blood to plasma partitioning; type: in vitro ADME, human; details: 37 °C; for B/P (whole blood to plasma partitioning ratio): human whole blood; for blood plasma ratio at 1000 ng/mL: human, whole blood, pH 7.4, human whole blood, read-out: B/P (whole blood to plasma partitioning ratio)
Method: Human whole blood was collected and supplied by the Volunteer Blood Donor Registry (Clinical Translation Centre, Walter & Eliza Hall Institute of Medical Research, Parkville, Australia) and used on the day of collection. The haematocrit (Hct) was determined by centrifugation (13,000×g for 3 min using Clemets® Microhaematocrit centrifuge and Safecap® Plain Self-sealing Mylar wrapped capillary tubes) to ensure it was between 0.40 and 0.48. An aliquot was centrifuged (Heraeus, Multifuge 3 S-R; 4500×g) for 10 min to obtain plasma required for matrix matching purposes as described below.
Two aliquots of the spiked whole blood were transferred to fresh microcentrifuge tubes and maintained at 37 °C/5% CO2 in a humidified incubator. The pH was confirmed to be 7.4 ± 0.1 at the start and end of the incubation. At each time point (30 min and 4 h), one whole blood tube was removed from the incubator and mixed by gentle inversion, after which four replicate blood samples were taken and matrix matched with an equal volume of blank plasma. The remainder of the blood sample was centrifuged (Eppendorf, Mini Spin plus; 6700×g) for 2 min for the collection of 4 replicate plasma samples which were similarly matrix matched with an equal volume of blank whole blood. The 1:1 mixtures of blood/plasma were mixed, snap frozen in dry ice and stored at − 80 °C until analysis by LC–MS (Additional file 1: Table S2) against calibration standards prepared in the same mixed matrix. Any further distribution of compound into RBCs at this stage was irrelevant as the cells were lysed during the sample preparation and the total concentration in the mixed matrix was measured for both the calibration standards and samples.
The apparent whole blood-to-plasma partitioning ratio (B/P) was calculated as the ratio of the average concentration in the blood sample to that in the plasma fraction of the same whole blood sample. A standard deviation (SD) for each B/P value was calculated using the propagation of errors approach as described previously.

human liver microsomes = experiment: Binding to human liver microsomes via ultracentrifugation; type: in vitro ADME; details: 0.4 mg/mL protein
Method in brief: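 Unbound fraction by ultracentrifugation: Cunbound measured in protein-free supernate, Ctotal from spiked tubes held at 37 °C, sampled at start and end to check degradation. Matrix was 0.4 mg/mL human liver microsomal protein, 0.1 M phosphate pH 7.4; matrix-matched analysis against one calibration curve.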

Caco-2 cell monolayers [4] = experiment: Bidirectional permeability across Caco-2 cell monolayers
Method in brief: (§5)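 Donor and acceptor concentrations measured by LC–MS to give Papp, mass balance and efflux ratio (mean B–A over A–B Papp). Media were pH 7.4 HEPES-buffered HBSS or human plasma on both sides; for plasma, Papp used the donor fraction unbound. Donor contained 0.1% v/v DMSO.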

Caco-2 cell monolayers [5] = details: cited from earlier work
[6] = Plasma protein binding via rapid equilibrium dialysis (RED), 10% plasma; type: in vitro ADME, human; details: human, 10% pooled plasma (diluted 1:10), pH 7.4, RED, 10% plasma corrected for dilution; for fraction unbound at 24 h: presaturation of device and 24 h dialysis; for fraction unbound at 6 h: 6 h dialysis
Method: as §1, §2, §3, §4

human plasma [7] = details: methods UF, ED, EP or not described per compound, ref [6]–[22] of Additional file 1; cited from earlier work
[8] = Bidirectional permeability across Caco-2 cell monolayers; details: human; for Papp A→B: Caco-2, A–B Papp, matrix: human plasma, corrected for fu
Method in brief: as §5

[9] = matrix: human plasma, corrected for fu
[10] = matrix: pH 7.4 buffer, ref 31 (quinine), 78 (DSM421)

Compound	Fraction unbound, human plasma (human plasma [1])	Fraction unbound, human plasma (human plasma [2]; 6 h dialysis)	B/P (whole blood to plasma partitioning ratio) [3]	fraction unbound at 24 h [6]	blood plasma ratio at 1000 ng/mL [3]	Literature fu (human plasma [7])	fraction unbound at 6 h [6]	Papp A→B [8] [×10⁻⁶ cm/s]	also measured
COc1cc2[nH]c(C)c(-c3ccc(Oc4ccc(OC(F)(F)F)cc4)cc3)c(=O)c2cc1Cl [ELQ300]	0.011 (0.0020)	< 0.0001	0.53 ± 0.05						Fraction unbound, human plasma (human plasma [2]; presaturation of device and 24 h dialysis): 0.00010 ± 0.000010^c; Fraction unbound, HLM (human liver microsomes): 0.002 ± 0.00010; A–B Papp (Caco-2 cell monolayers [4]; [9]): > 300 10^−6 cm/s; B–A Papp (Caco-2 cell monolayers [4]; [9]): > 300 10^−6 cm/s
Cc1cc(Nc2ccc(C(F)(F)F)nc2)n2nc(C(C)(F)F)nc2n1 [DSM421]	0.039 ± 0.007	0.035 (0.0044)	0.53 ± 0.03						A–B Papp (Caco-2 cell monolayers [5]; [10]): 33 ± 2.5 10^−6 cm/s; B–A Papp (Caco-2 cell monolayers [5]; [10]): 46 10^−6 cm/s; efflux ratio (Caco-2 cell monolayers [5]; [10]): 1.4
Clc1ccc2c(N3CCN(CCCN4CCN(c5ccnc6cc(Cl)ccc56)CC4)CC3)ccnc2c1 [Piperaquine]				0.0003 ± 0.0001	0.57 ± 0.05	< 0.001			A–B Papp (Caco-2 cell monolayers [5]; [9]): > 300 10^−6 cm/s; B–A Papp (Caco-2 cell monolayers [5]; [9]): > 300 10^−6 cm/s
C[C@H]1Cc2c([nH]c3cc(Cl)c(F)cc23)[C@@]2(N1)C(=O)Nc1ccc(Cl)cc12 [KAE609]				0.0016 ± 0.0001	0.66 ± 0.04		0.002	> 300	Papp B→A ([8]; Caco-2): > 300 ×10⁻⁶ cm/s
COc1cc(C)c2c(Oc3cccc(C(F)(F)F)c3)c(OC)cc(NC(C)CCCN)c2n1 (stereo not drawn) [Tafenoquine]				0.0007 ± 0.00017	1.3 ± 0.04	< 0.005	< 0.0007	> 300	
CC[C@H]1OC(=O)[C@H](C)[C@@H](O[C@H]2C[C@@](C)(OC)[C@@H](O)[C@H](C)O2)[C@H](C)[C@@H](O[C@@H]2O[C@H](C)C[C@H](N(C)C)[C@H]2O)[C@](C)(O)C[C@@H](C)CN(C)[C@H](C)[C@@H](O)[C@]1(C)O [Azithromycin]		0.35				0.5-0.88	0.34		Papp B→A ([8]; Caco-2, pH 7.4): 13 ± 3.9 ×10⁻⁶ cm/s; A–B Papp (Caco-2 cell monolayers [4]; matrix: pH 7.4 buffer): 0.37 10^−6 cm/s and 0.38 10^−6 cm/s; A–B Papp (Caco-2 cell monolayers [4]; matrix: pH 7.4 buffer, listed as azithromycin): < 5 10^−6 cm/s
CCNCc1cc(Nc2ccnc3cc(Cl)ccc23)ccc1O [Desethylamodiaquine]					3.26 ± 0.35	0.18			
CCN(CC)CCCNc1ccnc2cc(Cl)ccc12.Cl.Cl [AQ-13]	0.43 ± 0.022		3.15 ± 0.20			0.45			Fraction unbound, HLM (human liver microsomes): 0.66 ± 0.048; A–B Papp (Caco-2 cell monolayers [4]; [9]): 25 ± 2.3 10^−6 cm/s; B–A Papp (Caco-2 cell monolayers [4]; [9]): 32 ± 0.8 10^−6 cm/s; efflux ratio (Caco-2 cell monolayers [4]; matrix: human plasma, mean B–A/A–B Papp): 1.2
CC(C)NC(=N)NC(=N)Nc1ccc(Cl)c(Cl)c1 [Chlorproguanil]			3.3 ± 0.38		> 3			19 ± 3	Papp B→A ([8]; Caco-2): 61 ± 7.4 ×10⁻⁶ cm/s; efflux ratio ([8]; Caco-2): 3.2
